Data as given in patent US9415049B2, “Heteroaryl compounds and uses thereof” (Celgene Avilomics Research, Inc., priority 2013, dated 2016).

What was measured:
[1] = system: PLCγ2 phosphorylation (Phospho Y-1217 PLCγ2) in Ramos cells; experiment: Btk Ramos cell signaling immunoblot analysis, phospho-PLCγ2; assay type: cell-based; conditions: 1 hour compound incubation, anti-human IgM stimulation, read-out: pPLCγ2 EC50
Method: The following example describes testing certain compounds according to the invention for inhibition of BTK activity. Ramos cells were incubated in serum-free RPMI medium for 1-1.5 hours. Cells were then centrifuged for 5 minutes at 1100 RPM and resuspended in serum-free RPMI in 15 mL roundbottom Corning tubes (˜2×10^6 cells/mL in 4 mL/tube). The compound was diluted in DMSO and was added to the cells to achieve a final concentration of 0.0003, 0.001, 0.003, 0.01, 0.03, 0.1, 0.3, and 1.0 μM. Cells were then incubated for 1 hour at 37° C. Following incubation, cells were spun at 1100 RPM for 5 minutes and then resuspended in 100 μL of serum-free RPMI. […] Supernatant was transferred to a fresh tube and analyzed for protein content. […]
10 μg of protein was denatured by adding 1:10 (v:v) of NuPage Reducing Agent plus 1:4 (v:v) of LDS Loading Buffer. […] The membrane was then scanned on a LiCor Odyssey Scanner using infrared fluorescence detection.
Data analysis was accomplished using the analysis package found in Odyssey Infrared Imaging System software in which intensities of total Btk and phospho-Btk were measured. Phospho-Btk was normalized to total Btk protein in each lane as a loading control and results are expressed as % activity compared to the DMSO control (100%) Inhibition of phospho-PLCγ2 was quantitated in a similar manner. […]

BTK = target: T1, BTK (Homo sapiens, UniProt Q06187); experiment: Btk target site occupancy, covalent probe ELISA in Ramos cells; assay type: cell-based; conditions: 1 hour at 37° C., 0.09-200 nM, read-out: Ramos cell EC50 (nM), BTK occupancy
T1 construct: endogenous in cells; host or cells: Ramos cells
Method: A covalent probe shown below was used in an ELISA assay to determine occupancy of the target BTK by certain compounds according to the invention.
Ramos cells were incubated in serum-free RPMI medium for 1 hour (˜2×10^6 cells/mL in 2 mL). Test compounds were diluted from a 10 mM DMSO stock solution, to achieve a final concentration of 0.09, 0.27, 0.82, 2.47, 7.42, 22.2, 66, and 200 nM. Cells were then incubated for 1 hour at 37° C. Following incubation, cells were spun at 1100 RPM for 5 minutes then washed in 200 μL of chilled PBS. Following the wash, cells were spun at 1100 RPM for 5 minutes. The supernatant was aspirated and then cells were resuspended in lysis buffer containing protease and phosphatase inhibitors. This was followed by centrifugation for 15 minutes at 14000 RPM at 4° C. Supernatant was transferred to a fresh tube. Lysates were stored at −80° C. until assayed.
Samples were thawed and mixed well by vortexing for 5 seconds. 60 μL of each sample was added into the 96-well mixing plate followed by addition of 60 μL of covalent probe solution (2 μM probe in PBS+0.05% Tween-20+1% BSA; 1:2 sample dilution) to each well containing sample. An adhesive cover was then placed on the plate followed by mixing of the plate on a shaker for 1 hour at room temperature. The streptavidin plate was pre-washed 3 times with PBS+0.05% Tween-20. 50 μL of the standards, QCs, and samples were then transferred from the mixing plate to the streptavidin plate. The plate was covered with an adhesive cover and mixed while shaking for 1 hour at room temperature. A 1:1000 dilution of the primary anti-Btk antibody (catalog #611116, Becton Dickinson; Franklin Lakes, N.J.) in PBS+0.05% Tween-20+0.5% BSA was prepared. The streptavidin plate was washed 3 times with PBS+0.05% Tween-20 and 50 μL/well of diluted anti-Btk antibody was then pipetted into the streptavidin plate. The plate was covered and incubated for 1 hour at room temperature. A 1:5000 dilution of secondary antibody (goat anti-mouse-HRP, catalog #62-6520, Zymed-Invitrogen; Carlsbad, Calif.) in PBS+0.05% Tween-20+0.5% BSA was prepared. The streptavidin plate was again washed 3 times with PBS+0.05% Tween-20 and 50 μL/well of diluted secondary antibody was pipetted into the streptavidin plate. The plate was covered and incubated for 1 hour at room temperature. The streptavidin plate was again washed 3 times with PBS+0.05% Tween-20 followed by the addition of 100 μL of TMB solution to each well. The plate was then read on a Synergy^2 plate reader at OD 650 nm until the OD maximum reached 1.0. This was followed by the addition of 100 μL of the Stop Solution. The plate was then read at OD 450 nm. A human recombinant Btk protein standard curve (11.7-3000 pg/μL) was plotted using a 4 parameter curve fit in GenS software (Version 1.05.11; Biotek; Winooski, Vt.;). The sample ODs were read against the standard curve to calculate free protein amounts.
Data were generated as ODs on an ELISA plate reader (Synergy^2, BioTek; Winooski, Vt.). Uninhibited Btk captured by the biotinylated covalent probe was quantitated and normalized to untreated control samples. Results were expressed as % Btk occupancy. EC50 values were generated using a 4 parameter curve fit analysis in GraphPad Prism version 5.0.

T1 sequence (Q06187 whole entry): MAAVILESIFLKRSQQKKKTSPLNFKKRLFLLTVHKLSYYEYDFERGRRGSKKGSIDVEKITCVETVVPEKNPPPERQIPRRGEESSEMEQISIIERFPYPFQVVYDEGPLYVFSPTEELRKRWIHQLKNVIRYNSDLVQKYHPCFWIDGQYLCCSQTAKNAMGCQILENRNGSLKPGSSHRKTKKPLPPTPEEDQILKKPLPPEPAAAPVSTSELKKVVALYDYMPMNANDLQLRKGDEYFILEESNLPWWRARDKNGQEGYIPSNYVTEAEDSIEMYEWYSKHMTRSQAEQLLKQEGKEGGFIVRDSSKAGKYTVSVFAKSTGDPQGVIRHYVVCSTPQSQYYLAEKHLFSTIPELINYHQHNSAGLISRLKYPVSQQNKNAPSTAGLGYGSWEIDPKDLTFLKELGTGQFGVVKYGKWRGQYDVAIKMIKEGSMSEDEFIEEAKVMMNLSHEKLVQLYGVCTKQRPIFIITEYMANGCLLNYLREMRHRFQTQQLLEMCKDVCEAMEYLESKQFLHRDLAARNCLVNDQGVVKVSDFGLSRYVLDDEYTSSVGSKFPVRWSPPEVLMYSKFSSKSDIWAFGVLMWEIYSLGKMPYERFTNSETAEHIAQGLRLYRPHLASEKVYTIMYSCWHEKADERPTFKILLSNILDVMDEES

Row | EC50 [1] | EC50 (BTK) | SMILES
1 | 10 to 50 nM | < 50 nM | C=CC(=O)Nc1cccc(Nc2nc(Nc3ccc(O)cc3)ncc2F)c1 [Compound I-3, N-(3-((5-fluoro-2-((4-hydroxyphenyl)amino)pyrimidin-4-yl)amino)phenyl)acrylamide]
2 | < 10 nM | < 50 nM | C=CC(=O)Nc1cccc(Nc2nc(Nc3ccc(OCCO)cc3)ncc2F)c1 [Compound I-1, N-(3-((5-fluoro-2-((4-(2-hydroxyethoxy)phenyl)amino)pyrimidin-4-yl)amino)phenyl)acrylamide]
